Assay results reported in PubChem BioAssay AID2060619 (Molecular Pharmacology Branch, DTP, NCI, 2025).
“And” between values parts separate entries of the source, which are not always exact repeats. Equal values may be shown once.

Tested on: 323965-272-R-J2-PDC complex spheroid viability
Assay: Anticancer human tumor 323965-272-R-J2-PDC patient-derived pancreatic carcinoma cell line growth inhibition [CLK]
Settings: for viability, T/C: stronger effect = lower value
Method in brief: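 Patient-derived tumor cells grown as complex spheroids with HUVEC endothelial cells and mesenchymal stem cells, treated with drug combinations. Concentrations descend in half-log steps from near clinical Cmax, or from 10 microM if Cmax unknown.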

[1] = curve of first compound, second compound 0.0316 µM
[2] = curve of first compound, second compound 0.1 µM
[3] = curve of first compound, second compound 0.316 µM
[4] = curve of first compound, second compound 1 µM
[5] = curve of first compound, second compound 3.16 µM
[6] = curve of first compound, second compound 10 µM
[7] = second compound 0.0316 µM, first compound 0.0316 µM
[8] = second compound 0.0316 µM, first compound 0.1 µM
[9] = second compound 0.0316 µM, first compound 0.316 µM
[10] = second compound 0.0316 µM, first compound 1 µM
[11] = second compound 0.1 µM, first compound 0.0316 µM
[12] = second compound 0.1 µM, first compound 0.1 µM
[13] = second compound 0.1 µM, first compound 0.316 µM
[14] = second compound 0.1 µM, first compound 1 µM
[15] = second compound 0.316 µM, first compound 0.0316 µM
[16] = second compound 0.316 µM, first compound 0.1 µM
[17] = second compound 0.316 µM, first compound 0.316 µM
[18] = second compound 0.316 µM, first compound 1 µM
[19] = second compound 1 µM, first compound 0.0316 µM
[20] = second compound 1 µM, first compound 0.1 µM
[21] = second compound 1 µM, first compound 0.316 µM
[22] = second compound 1 µM, first compound 1 µM
[23] = second compound 3.16 µM, first compound 0.0316 µM
[24] = second compound 3.16 µM, first compound 0.1 µM
[25] = second compound 3.16 µM, first compound 0.316 µM
[26] = second compound 3.16 µM, first compound 1 µM
[27] = second compound 10 µM, first compound 0.0316 µM
[28] = second compound 10 µM, first compound 0.1 µM
[29] = second compound 10 µM, first compound 0.316 µM
[30] = second compound 10 µM, first compound 1 µM
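Also: spheroids exposed to agents for seven days before readout.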
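For viability, T/C in this document: percent of DMSO vehicle control wells so 100% = untreated growth.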

Compound: NC(=O)C(=Cn1cnc(-c2cc(C(F)(F)F)cc(C(F)(F)F)c2)n1)c1cncnc1 + CNC(=O)c1ccc(Nc2nc(OC3CCCC3)c3c(-c4ccc5nc(C)oc5c4)c[nH]c3n2)c(OC)c1
- IC50 [1]: 1070 nM
- IC50 [2]: 1270 nM
- IC50 [3]: 655 nM
- IC50 [4]: 53.9 nM
- IC50 [5]: < 9.49 nM
- IC50 [6]: < 9.49 nM
- viability, T/C (second compound 0.0316 µM, first compound 0.00949 µM): 112%
- viability, T/C (second compound 0.0316 µM, first compound 0.03 µM): 88.8%
- viability, T/C (second compound 0.0316 µM, first compound 0.0949 µM): 75.1%
- viability, T/C (second compound 0.0316 µM, first compound 0.3 µM): 66.7%
- viability, T/C (second compound 0.0316 µM, first compound 0.949 µM): 62.1%
- viability, T/C (second compound 0.0316 µM, first compound 3 µM): 30.9%
- viability, T/C (second compound 0.1 µM, first compound 0.00949 µM): 86.6%
- viability, T/C (second compound 0.1 µM, first compound 0.03 µM): 89%
- viability, T/C (second compound 0.1 µM, first compound 0.0949 µM): 70.9%
- viability, T/C (second compound 0.1 µM, first compound 0.3 µM): 68.6%
- viability, T/C (second compound 0.1 µM, first compound 0.949 µM): 59.6%
- viability, T/C (second compound 0.1 µM, first compound 3 µM): 32.5%
- viability, T/C (second compound 0.316 µM, first compound 0.00949 µM): 65.8%
- viability, T/C (second compound 0.316 µM, first compound 0.03 µM): 67.9%
- viability, T/C (second compound 0.316 µM, first compound 0.0949 µM): 64.7%
- viability, T/C (second compound 0.316 µM, first compound 0.3 µM): 59.9%
- viability, T/C (second compound 0.316 µM, first compound 0.949 µM): 45.3%
- viability, T/C (second compound 0.316 µM, first compound 3 µM): 25.5%
- viability, T/C (second compound 1 µM, first compound 0.00949 µM): 50.9%
- viability, T/C (second compound 1 µM, first compound 0.03 µM): 56.4%
- viability, T/C (second compound 1 µM, first compound 0.0949 µM): 45.1%
- viability, T/C (second compound 1 µM, first compound 0.3 µM): 42.8%
- viability, T/C (second compound 1 µM, first compound 0.949 µM): 30.6%
- viability, T/C (second compound 1 µM, first compound 3 µM): 13.1%
- viability, T/C (second compound 3.16 µM, first compound 0.00949 µM): 46%
- viability, T/C (second compound 3.16 µM, first compound 0.03 µM): 51.4%
- viability, T/C (second compound 3.16 µM, first compound 0.0949 µM): 37.1%
- viability, T/C (second compound 3.16 µM, first compound 0.3 µM): 38.9%
- viability, T/C (second compound 3.16 µM, first compound 0.949 µM): 33%
- viability, T/C (second compound 3.16 µM, first compound 3 µM): 16.6%
- viability, T/C (second compound 10 µM, first compound 0.00949 µM): 45.1%
- viability, T/C (second compound 10 µM, first compound 0.03 µM): 48.4%
- viability, T/C (second compound 10 µM, first compound 0.0949 µM): 47.2%
- viability, T/C (second compound 10 µM, first compound 0.3 µM): 39.8%
- viability, T/C (second compound 10 µM, first compound 0.949 µM): 24.1%
- viability, T/C (second compound 10 µM, first compound 3 µM): 9.32%

Compound: C#Cc1c(F)ccc2cc(O)cc(-c3ncc4c(N5CC6CCC(C5)N6)nc(OCC56CCCN5CC(F)C6)nc4c3F)c12 (configuration not stated)
- viability, T/C (compound 0.0316 µM): 101% and 111%
- viability, T/C (compound 0.1 µM): 91.2% and 95.5%
- viability, T/C (compound 0.316 µM): 106% and 98.5%
- viability, T/C (compound 1 µM): 81.5% and 86.9%
- viability, T/C (compound 3.16 µM): 63.2% and 75.6%
- viability, T/C (compound 10 µM): 48.4% and 55.3%
- IC50 (curve of compound): 9340 nM and > 10000 nM

Compound: COc1cccc2c1C(=O)c1c(O)c3c(c(O)c1C2=O)CC(O)(C(=O)CO)CC3OC1CC(N)C(O)C(C)O1 (configuration not stated)
- viability, T/C (compound 0.0316 µM): 87.4% and 66.2%
- viability, T/C (compound 0.1 µM): 40.6% and 41.4%
- viability, T/C (compound 0.316 µM): 38.4% and 37%
- viability, T/C (compound 1 µM): 44.7% and 30.5%
- viability, T/C (compound 3.16 µM): 30.1% and 21.3%
- viability, T/C (compound 10 µM): 2.57% and 0.82%
- IC50 (curve of compound): 240 nM and 97.6 nM

Compound: CCN1CCN(Cc2ccc(Nc3ncc(F)c(-c4cc(F)c5nc(C)n(C(C)C)c5c4)n3)nc2)CC1 + CN1CCN(c2cc(C(=O)Nc3cc4cc(-c5cnn(C)c5)ccc4cn3)ccn2)CC1
- IC50 [1]: > 1000 nM
- IC50 [2]: > 1000 nM
- IC50 [3]: < 3.16 nM
- IC50 [4]: < 3.16 nM
- IC50 [5]: < 3.16 nM
- IC50 [6]: < 3.16 nM
- viability, T/C (second compound 0.0316 µM, first compound 0.00316 µM): 93.6%
- viability, T/C (second compound 0.0316 µM, first compound 0.01 µM): 96.1%
- viability, T/C [7]: 78.2%
- viability, T/C [8]: 73.1%
- viability, T/C [9]: 65.2%
- viability, T/C [10]: 76.1%
- viability, T/C (second compound 0.1 µM, first compound 0.00316 µM): 68.6%
- viability, T/C (second compound 0.1 µM, first compound 0.01 µM): 67.8%
- viability, T/C [11]: 62.6%
- viability, T/C [12]: 60.2%
- viability, T/C [13]: 59.7%
- viability, T/C [14]: 58.9%
- viability, T/C (second compound 0.316 µM, first compound 0.00316 µM): 23.3%
- viability, T/C (second compound 0.316 µM, first compound 0.01 µM): 24.5%
- viability, T/C [15]: 25.5%
- viability, T/C [16]: 27.9%
- viability, T/C [17]: 29.6%
- viability, T/C [18]: 39.9%
- viability, T/C (second compound 1 µM, first compound 0.00316 µM): 3.56%
- viability, T/C (second compound 1 µM, first compound 0.01 µM): 3.73%
- viability, T/C [19]: 3.71%
- viability, T/C [20]: 3.79%
- viability, T/C [21]: 7.89%
- viability, T/C [22]: 9.9%
- viability, T/C (second compound 3.16 µM, first compound 0.00316 µM): 3.02%
- viability, T/C (second compound 3.16 µM, first compound 0.01 µM): 5.31%
- viability, T/C [23]: 3.88%
- viability, T/C [24]: 3.9%
- viability, T/C [25]: 4.69%
- viability, T/C [26]: 6.79%
- viability, T/C (second compound 10 µM, first compound 0.00316 µM): 3.83%
- viability, T/C (second compound 10 µM, first compound 0.01 µM): 4.01%
- viability, T/C [27]: 4.24%
- viability, T/C [28]: 3.37%
- viability, T/C [29]: 4.88%
- viability, T/C [30]: 5.11%

Compound: Nc1ccccc1NC(=O)c1ccc(CNC(=O)OCc2cccnc2)cc1 + CN1CCN(c2cc(C(=O)Nc3cc4cc(-c5cnn(C)c5)ccc4cn3)ccn2)CC1
- IC50 [1]: 6960 nM
- IC50 [2]: 3000 nM
- IC50 [3]: < 31.6 nM
- IC50 [4]: < 31.6 nM
- IC50 [5]: < 31.6 nM
- IC50 [6]: < 31.6 nM
- viability, T/C [7]: 92.1%
- viability, T/C [8]: 92.3%
- viability, T/C [9]: 93.6%
- viability, T/C [10]: 99%
- viability, T/C (second compound 0.0316 µM, first compound 3.16 µM): 63.5%
- viability, T/C (second compound 0.0316 µM, first compound 10 µM): 43.8%
- viability, T/C [11]: 79%
- viability, T/C [12]: 75.9%
- viability, T/C [13]: 80%
- viability, T/C [14]: 78.7%
- viability, T/C (second compound 0.1 µM, first compound 3.16 µM): 48.6%
- viability, T/C (second compound 0.1 µM, first compound 10 µM): 30.6%
- viability, T/C [15]: 26.4%
- viability, T/C [16]: 24.6%
- viability, T/C [17]: 21.4%
- viability, T/C [18]: 21.8%
- viability, T/C (second compound 0.316 µM, first compound 3.16 µM): 17.1%
- viability, T/C (second compound 0.316 µM, first compound 10 µM): 16.8%
- viability, T/C [19]: 3.43%
- viability, T/C [20]: 3.41%
- viability, T/C [21]: 4.13%
- viability, T/C [22]: 2.18%
- viability, T/C (second compound 1 µM, first compound 3.16 µM): 2.06%
- viability, T/C (second compound 1 µM, first compound 10 µM): 0.81%
- viability, T/C [23]: 3.66%
- viability, T/C [24]: 5.59%
- viability, T/C [25]: 6.21%
- viability, T/C [26]: 4.43%
- viability, T/C (second compound 3.16 µM, first compound 3.16 µM): 2.9%
- viability, T/C (second compound 3.16 µM, first compound 10 µM): 3.42%
- viability, T/C [27]: 3.69%
- viability, T/C [28]: 4.56%
- viability, T/C [29]: 5.4%
- viability, T/C [30]: 4.41%
- viability, T/C (second compound 10 µM, first compound 3.16 µM): 4.37%
- viability, T/C (second compound 10 µM, first compound 10 µM): 2.69%

Compound: CC(C)CC(NC(=O)C(Cc1ccccc1)NC(=O)c1cnccn1)B(O)O (configuration not stated)
- viability, T/C (compound 0.000949 µM): 107% and 115%
- viability, T/C (compound 0.003 µM): 75.1% and 49.5%
- viability, T/C (compound 0.00949 µM): 5.4% and 2.55%
- viability, T/C (compound 0.03 µM): 0.66% and 1.05%
- viability, T/C (compound 0.0949 µM): 0.26% and 0.62%
- viability, T/C (compound 0.3 µM): 2% and 3.78%
- IC50 (curve of compound): 4.54 nM and 2.98 nM
